Where a name gives a salt, the structure may show the parent alone. Marks after values point to notes of the source that are not given here.
Key:
[1] = Thermostability on storage at 25, 40 and 100 °C per ICH Q1A (R2), HPLC; format: physicochemical
Experimental: HPLC and GC analyses were performed according to standard protocols.
The testing was performed as described in the ICH guidelines (cf. inter alia ICH Guideline Q1A (R2)).

[2] = Hygroscopic capacity: water content by Karl-Fischer titration after exposure to temperature and relative humidity; format: physicochemical; details: 25 or 40 °C, 40-90% rh
Experimental: Coulometric Karl-Fischer titration (KFT; for determining the water content) was performed with an external drying oven (Metrohm 707 KF; operated at 140° C. with N2 purge). The samples were precisely weighed on an analytical balance (10^−5 g).
The testing was performed as described in the ICH guidelines.

[3] = 25 °C, 12 months, hydrochloride
[4] = 25 °C, 24 months, hydrochloride

SMILES: COc1cccc2c1C(=O)c1c(O)c3c(c(O)c1C2=O)C[C@@](O)(C(=O)CO)C[C@@H]3O[C@H]1C[C@H](N)[C@H](O)[C@H](C)O1 [epirubicin hydrochloride monohydrate, epirubicin hydrochloride]
- Stability over a time period (overall shelf-life) ([1]; 25 °C): ≥ 5 years
- Doxorubicinone ([1]; 25 °C, 0 months): LT 0.05 % (w/w)
- Assay (intact epirubicin hydrochloride) ([1]; 25 °C, 0 months, hydrochloride): 99.2 % (w/w)
- Assay (intact epirubicin hydrochloride) ([1]; 25 °C, 1 month, hydrochloride): 99.4 % (w/w)
- Doxorubicinone ([1]; 25 °C, 1 month, hydrochloride): LT 0.05 % (w/w)
- Assay (intact epirubicin hydrochloride) ([1]; 25 °C, 3 months, hydrochloride): 99.4 % (w/w)
- Doxorubicinone ([1]; 25 °C, 3 months, hydrochloride): LT 0.05 % (w/w)
- Assay (intact epirubicin hydrochloride) ([1]; 25 °C, 6 months, hydrochloride): 99.2 % (w/w)
- Doxorubicinone ([1]; 25 °C, 6 months, hydrochloride): LT 0.05 % (w/w)
- Assay (intact epirubicin hydrochloride) [1, 3]: 99.0 % (w/w)
- Doxorubicinone [1, 3]: LT 0.05 % (w/w)
- Assay (intact epirubicin hydrochloride) [1, 4]: 99.4 % (w/w)
- Doxorubicinone [1, 4]: LT 0.05 % (w/w)
- Assay (intact epirubicin hydrochloride) ([1]; 25 °C, 36 months): 99.1 % (w/w)
- Doxorubicinone ([1]; 25 °C, 36 months): LT 0.05 % (w/w)
- Assay (intact epirubicin hydrochloride) ([1]; 25 °C, 48 months): 99.1 % (w/w)
- Doxorubicinone ([1]; 25 °C, 48 months): LT 0.05 % (w/w)
- Assay (intact epirubicin hydrochloride) ([1]; 25 °C, 60 months): 99.2 % (w/w)
- Doxorubicinone ([1]; 25 °C, 60 months): LT 0.05 % (w/w)
- Stability over a time period (thermostability) ([1]; 40 °C): ≥ 6 months
- Doxorubicinone ([1]; 40 °C, 0 months): LT 0.05 % (w/w)
- Assay (intact epirubicin hydrochloride) ([1]; 40 °C, 0 months, hydrochloride): 99.2 % (w/w)
- Assay (intact epirubicin hydrochloride) ([1]; 40 °C, 1 month, hydrochloride): 99.2 % (w/w)
- Doxorubicinone ([1]; 40 °C, 1 month, hydrochloride): LT 0.05 % (w/w)
- Assay (intact epirubicin hydrochloride) ([1]; 40 °C, 3 months, hydrochloride): 99.1 % (w/w)
- Doxorubicinone ([1]; 40 °C, 3 months, hydrochloride): LT 0.05 % (w/w)
- Assay (intact epirubicin hydrochloride) ([1]; 40 °C, 6 months, hydrochloride): 99.3 % (w/w)
- Doxorubicinone ([1]; 40 °C, 6 months, hydrochloride): LT 0.05* % (w/w)
- Doxorubicinone ([1]; 100 °C, 0 months): LT 0.05 % (w/w)
- Assay (intact epirubicin hydrochloride) ([1]; 100 °C, 0 months, hydrochloride): 99.2 % (w/w)
- Assay (intact epirubicin hydrochloride) ([1]; 100 °C, 1 month, hydrochloride): 98.3 % (w/w)
- Doxorubicinone ([1]; 100 °C, 1 month, hydrochloride): LT 0.5** % (w/w)
- Doxorubicinone ([1]; 100 °C, 1 month, listed as crystalline monohydrate of epirubicin hydrochloride, hydrochloride): less than 0.5 % (w/w)
- Hygroscopic capacity, in words ([2]; up to 15 days): does not exhibit any significant hygroscopic capacity

SMILES: COc1cccc2c1C(=O)c1c(O)c3c(c(O)c1C2=O)C[C@@](O)(C(=O)CO)C[C@@H]3O[C@H]1C[C@H](N)[C@H](O)[C@H](C)O1 [Example 2, epirubicin hydrochloride]
- Thermostability compared with the Example 1 monohydrate (TABLE 5-1), in words ([1]; 25, 40, 100 °C, data not shown): almost identical results
- Hygroscopic capacity compared with the Example 1 monohydrate (TABLE 6-1), in words ([2]; data not shown): almost identical results

Reference: patent US20190382432A1 (Synbias Pharma AG, priority 2013, published 2019)
